Paper PMC7026885, “Macrofilaricidal Benzimidazole–Benzoxaborole Hybrids as an Approach to the Treatment of River Blindness: Part 1. Amide Linked Analogs” (ACS Infectious Diseases, 2019)
Where two headings read alike, the source gives them in different places.

Tests used:
[1] = system: Onchocerca volvulus L3 larvae; test: Onchocerca volvulus L3 larval molting assay; format: cell-based; conditions: L3 molting assay, Table 1, read-out: O. volvulus IC50
Experimental: (§1) The first three analogs from the benzimidazole 5-carboxylic acid, namely 7a (from 6-aminobenzoxaborole), 8a (from 6-aminomethyl-3,3-dimethylbenzoxaborole), and 8b (from 3-aminomethylbenzoxaborole), were prepared and tested in an Onchocerca volvulus L3 larval molting assay[34],[35] and a mammalian G2/M arrest assay[36] to evaluate antifilarial activity and selectivity, respectively (Table 1). O. volvulus is the causative agent of river blindness, and the L3 molting assay is the only widely available and reproducible assay of this filariid, the target of novel macrofilaricidal drugs.[34],[35] Other animal models (e.g., Brugia in gerbils) recapitulate aspects of lymphatic filariasis and are also used as surrogate screens for O. volvulus infections. Of the three compounds tested, 8a emerged as the most attractive compound on the basis of potency and selectivity.
(§2) Plates were incubated at 37 °C in a 5% CO2 incubator for 6 days, then molting was assessed visually using an inverted microscope. Molting was determined in each well by counting the presence of fourth stage larvae (L4s) and empty casts of L3s.
(§3) The percent inhibition of molting was calculated based on the number of treated larvae that were able to molt in comparison to the number of control larvae that had successfully molted. IC50 values were calculated using GraphPad Prism v6.0
(§4) (http://www.graphpad.com). See Bullman et al., PLoS Negl. Trop.
(§5) Adult Brugia malayi transplantation in vivo model procedure.
(§6) Gerbils (Meriones unguiculatus) were infected by transplantation of 10 male and 10 female adult Brugia malayi into the peritoneal cavity. Gerbils were acclimated for 7 days prior to treatment. Animals were dosed based on their body weight prior to each dosing. Animals were administered their doses at the same time each day and receive standard rodent laboratory diet and water ad libitum. Gerbils were humanely euthanized at the conclusion of each study. Peritoneal counts of male and female adult B. malayi and visual condition of the peritoneum were recorded.
(§7) Brugia pahangi L3 injection in vivo model procedure 8.
(§8) Male gerbils (Meriones unguiculatus) approximately 6 weeks of age (50-60 g) were purchased from Charles Rivers (USA, Kingston K62 Gerbils) and infected by intraperitoneal injection with 200 Brugia pahangi third-stage larvae (L3) per animal
(§9) (Filariatech, Inc., Athens, GA). Gerbils were housed with no more than 5 animals per cage and maintained 9 months prior to treatment. All gerbils were dosed in accordance with their body weight determined prior to each dosing. Animals were […]

[2] = MDR1-MDCK monolayer permeability assay; format: in vitro ADME; conditions: dog
Experimental: (§10) We characterized the in vitro ADME properties of 8a in preparation for evaluation of this compound in our primary in vivo model in gerbils. […] We were pleased to find that 8a was able to kill 100% of both male and female worms in the gerbil peritoneum when dosed subcutaneously at 100 mg/kg/day for 14 days as a suspension in a nonsolubilizing HEC/Tween vehicle. […] The subsequent assessment of the pharmacokinetics of 8a from these two dosing paradigms provided an interesting observation that we believe to be important in understanding the PK–PD requirements for achieving efficacy in this animal model. […] We had made the same observation in a positive control group using flubendazole at a subcutaneous dose of 10 mg/kg/day for 5 days in the nonsolubilizing HEC/Tween vehicle, namely, that plasma levels of flubendazole were maintained above the in vitro IC50 (4 nM) for over 42 days, consistent with data reported in the literature.[43] […] We next examined 8a in two additional in vivo models, the first where L3 B. pahangi larvae were injected into the peritoneum of gerbils and allowed to develop into adult worms[45] and a second where gerbils were naturally infected by the filarial nematode Litomosoides sigmodontis.[46],[47] In both of these models, 8a was administered subcutaneously at 100 mg/kg for 14 days or orally at 100 mg/kg for 28 days as a suspension. […] Additionally, when plasma obtained from treated animals at necropsy was analyzed for 8a, we observed an outcome similar to that observed in the adult implantation model, e.g., that measurable levels were present at this time point in the subcutaneous-dosed groups but not in the orally dosed groups, weeks after administration of the drug. In a final L. sigmodontis experiment with 8a, we dosed the compound subcutaneously at 300 mg/kg for 7 days as a suspension.

Brugia pahangi = Brugia pahangi L3 injection in vivo model in gerbils; conditions: B. pahangi, necropsy day 63, QD
Experimental: as §10, §2, §3, §4, §5, §6
Brugia pahangi L3 injection in vivo model procedure 8. […]
(Filariatech, Inc., Athens, GA). […] All gerbils were dosed in accordance with their body weight determined prior to each dosing. […]
The adult Brugia worms were recovered by opening the body cavity and washing the peritoneal cavity with 100 mL of phosphate buffered saline. Male and female worms were counted using a […]

Brugia malayi = test: Adult Brugia malayi transplantation in vivo model in gerbils; conditions: for adult worm reduction / animals with no worms: B. malayi, necropsy day 42, QD
Experimental: as §10, §2, §3, §4, §5, §6, §7, §8, §9

B. malayi/pahangi worms = test: ex vivo B. malayi/pahangi assay; format: cell-based; conditions: short (<7 days) exposure of worms
[3] = Plasma drug concentrations in treated infected gerbils; format: in vivo; conditions: for concentration at 42 day: day 42; for concentration at 28 day: day 28
Experimental: as §10

[4] = system: G2/M arrest (functional indicator of interaction with mammalian tubulin); test: mammalian G2/M arrest assay; format: cell-based; conditions: Table 1; read-out: G2/M arrest IC50
Experimental: as §1
Similarly, changing the point of attachment on the benzoxaborole core from 6- to 5- to afford 8d was also accompanied by increased potency in both the O. volvulus and G2/M arrest assays.

[5] = 100 mg/kg × 14 days, SC (suspension)
[6] = 100 mg/kg × 28 days, PO (suspension)
[7] = 150 mg/kg × 14 days, SC (solution)

SMILES: COC(=O)Nc1nc2cc(C(=O)NCc3ccc4c(c3)B(O)OC4(C)C)ccc2[nH]1 [8a]
- IC50 [1]: 0.3 µM
- Papp A→B [2]: 0.8 ×10⁻⁶ cm/s
- adult worm reduction (Brugia pahangi; [5]): 100%
- adult worm reduction (Brugia pahangi; [6]): 24%
- animals with no worms (Brugia pahangi; [6]): 0%
- adult worm reduction (Brugia malayi; [5]): 100%
- animals with no worms (Brugia malayi; [5]): 87.5%
- adult worm reduction (Brugia malayi; [6]): 12.5%
- animals with no worms (Brugia malayi; [6]): 0%
- adult worm reduction (Brugia malayi; [7]): 83.3%
- animals with no worms (Brugia malayi; [7]): 50%
- in vivo efficacy (Brugia malayi; SC 150 mg/kg/day as a solution in DMSO/water vehicle): substantially reduced
- kill of both male and female worms in the gerbil peritoneum (Brugia malayi; implanted adult B. malayi or B. pahangi, SC 100 mg/kg/day for 14 days, suspension in HEC/Tween vehicle): 100%
- in vivo efficacy by the oral route (Brugia malayi; oral, 100 mg/kg/day for 28 days): not efficacious
- killing of worms after short exposure (B. malayi/pahangi worms): not effective in killing the worms
- drug concentration at necropsy ([3]; B. malayi model, necropsy day 42, 100 mg/kg × 28 days, QD, PO (suspension)): <LOQ
- drug concentration at necropsy ([3]; B. pahangi model, necropsy day 63, 100 mg/kg × 28 days, QD, PO (suspension)): <LOQ
- concentration at 24 h after last dose ([3]; gerbil, plasma, po, 100 mg/kg, B. malayi model, 100 mg/kg × 28 days, QD, PO (suspension), read-out: drug concentration 24 h after last dose): 128 nM
- concentration at 24 h after last dose ([3]; gerbil, plasma, po, 100 mg/kg, B. pahangi model, 100 mg/kg × 28 days, QD, PO (suspension), read-out: drug concentration 24 h after last dose): 130 nM
- concentration at 42 day ([3]; gerbil, plasma, po, 100 mg/kg, L. sigmodontis model, 100 mg/kg × 28 days, QD, PO (suspension), read-out: drug concentration interim): 6 nM
- concentration at 63 day (necropsy) ([3]; gerbil, plasma, po, 100 mg/kg, L. sigmodontis model, necropsy day 63, 100 mg/kg × 28 days, QD, PO (suspension)): 3 nM
- concentration at 24 h after last dose ([3]; gerbil, plasma, po, 100 mg/kg, L. sigmodontis model, 100 mg/kg × 28 days, QD, PO (suspension), read-out: drug concentration 24 h after last dose): 210 nM
- concentration at 28 day ([3]; gerbil, plasma, sc, 100 mg/kg, B. malayi model, 100 mg/kg × 14 days, QD, SC (suspension), read-out: drug concentration interim): 5360 nM
- concentration at 42 day (necropsy) ([3]; gerbil, plasma, sc, 100 mg/kg, B. malayi model, necropsy day 42, 100 mg/kg × 14 days, QD, SC (suspension), read-out: drug concentration at necropsy): 3380 nM
- concentration at 24 h after last dose ([3]; gerbil, plasma, sc, 100 mg/kg, B. malayi model, 100 mg/kg × 14 days, QD, SC (suspension), read-out: drug concentration 24 h after last dose): 4100 nM
- concentration at 63 day (necropsy) ([3]; gerbil, plasma, sc, 100 mg/kg, B. pahangi model, necropsy day 63, 100 mg/kg × 14 days, QD, SC (suspension)): 1150 nM
- concentration at 24 h after last dose ([3]; gerbil, plasma, sc, 100 mg/kg, B. pahangi model, 100 mg/kg × 14 days, QD, SC (suspension), read-out: drug concentration 24 h after last dose): 5870 nM
- concentration at 63 day (necropsy) ([3]; gerbil, plasma, sc, 100 mg/kg, L. sigmodontis model, necropsy day 63, 100 mg/kg × 14 days, QD, SC (suspension)): 69 nM
- concentration at 24 h after last dose ([3]; gerbil, plasma, sc, 100 mg/kg, L. sigmodontis model, 100 mg/kg × 14 days, QD, SC (suspension), read-out: drug concentration 24 h after last dose): 9300 nM
- concentration at 28 day ([3]; gerbil, plasma, sc, 150 mg/kg, B. malayi model, 150 mg/kg × 14 days, QD, SC (solution), read-out: drug concentration interim): 70 nM
- concentration at 42 day (necropsy) ([3]; gerbil, plasma, sc, 150 mg/kg, B. malayi model, necropsy day 42, 150 mg/kg × 14 days, QD, SC (solution), read-out: drug concentration at necropsy): 10 nM
- concentration at 24 h after last dose ([3]; gerbil, plasma, sc, 150 mg/kg, B. malayi model, 150 mg/kg × 14 days, QD, SC (solution), read-out: drug concentration 24 h after last dose): 2470 nM
- concentration at 21 day ([3]; gerbil, plasma, sc, 300 mg/kg, L. sigmodontis model, day 21, 300 mg/kg × 7 days, QD, SC (suspension), read-out: drug concentration interim): 10600 nM
- concentration at 42 day ([3]; gerbil, plasma, sc, 300 mg/kg, L. sigmodontis model, 300 mg/kg × 7 days, QD, SC (suspension), read-out: drug concentration interim): 4640 nM
- concentration at 63 day (necropsy) ([3]; gerbil, plasma, sc, 300 mg/kg, L. sigmodontis model, necropsy day 63, 300 mg/kg × 7 days, QD, SC (suspension)): 480 nM
- concentration at 24 h after last dose ([3]; gerbil, plasma, sc, 300 mg/kg, L. sigmodontis model, 300 mg/kg × 7 days, QD, SC (suspension), read-out: drug concentration 24 h after last dose): 7850 nM
- IC50 [4]: 13 µM

SMILES: COC(=O)Nc1nc2cc(C(=O)c3ccc(F)cc3)ccc2[nH]1 [compound 1, Flubendazole, reference compound]
- IC50 [1]: 0.004 µM
- Papp A→B ([2]; A-B, Table 1, read-out: MDCK-MDR1 Papp (A-B)): 15.6 ×10⁻⁶ cm/s
- adult worm reduction (Brugia pahangi; 10 mg/kg × 5 days, SC): 100%/100%
- animals with no worms (Brugia pahangi; 10 mg/kg × 5 days, SC): 100%/100%
- adult worm reduction (Brugia malayi; 10 mg/kg × 5 days, SC): 100%/100%
- animals with no worms (Brugia malayi; 10 mg/kg × 5 days, SC): 100%/100%
- killing of worms after short exposure (B. malayi/pahangi worms): not effective in killing the worms
- concentration at 24 h after last dose ([3]; gerbil, in vivo, sc, 10 mg/kg, drug concentration 24 h after last dose): 178 nM
- concentration at 42 day (necropsy) ([3]; gerbil, in vivo, sc, 10 mg/kg, drug concentration at necropsy): 43 nM
- time plasma levels maintained above in vitro IC50 (4 nM) ([3]; gerbil, in vivo, sc, 10 mg/kg/day): over 42 days
- IC50 [4]: 0.67 µM
